ChEMBL document CHEMBL1157517, “Hepatitis C virus NS3-4A serine protease inhibitors: SAR of new P1 derivatives of SCH 503034” (Bioorg Med Chem Lett, 2008)

Columns and labels:
[1] = Inhibition of HCV NS3 serine protease; parameters: species or system Hepacivirus hominis
[2] = AUC in rat at 3 mg/kg, po; type: ADME, organism-based; parameters: dose 3 mg/kg, route oral; conditions: plasma
Hepatitis C virus = test: Antiviral activity against HCV; type: functional, Hepacivirus hominis

Row | Compound | Ki [1] | AUC [2] | EC90 (Hepatitis C virus)
1 | CC(F)(F)CC(NC(=O)[C@@H]1[C@@H]2[C@H](CN1C(=O)[C@@H](NC(=O)NC(C)(C)C)C(C)(C)C)C2(C)C)C(=O)C(N)=O (stereo partly drawn) | 230 nM | – | –
2 | CCC(F)(F)CC(NC(=O)[C@@H]1[C@@H]2[C@H](CN1C(=O)[C@@H](NC(=O)NC(C)(C)C)C(C)(C)C)C2(C)C)C(=O)C(N)=O (stereo partly drawn) | 360 nM | – | –
3 | CC(C)(C)NC(=O)N[C@H](C(=O)N1C[C@H]2[C@@H]([C@H]1C(=O)NC(CCC(F)(F)F)C(=O)C(N)=O)C2(C)C)C(C)(C)C (stereo partly drawn) | 65 nM | 0.02 µM·h | 600 nM
4 | CC(C)(C)NC(=O)N[C@H](C(=O)N1C[C@H]2[C@@H]([C@H]1C(=O)NC(C[C@H]1C[C@@H](O)C1)C(=O)C(N)=O)C2(C)C)C(C)(C)C (stereo partly drawn) | 160 nM | – | –
5 | CC(C)(C)NC(=O)N[C@H](C(=O)N1C[C@H]2[C@@H]([C@H]1C(=O)NC(CCCC(F)(F)F)C(=O)C(N)=O)C2(C)C)C(C)(C)C (stereo partly drawn) | 1300 nM | – | –

Further lines, results first:

Row | Ki [1] | AUC [2] | EC90 (Hepatitis C virus) | Compound
6 | 163000 nM | – | – | CC(C)(C)NC(=O)N[C@H](C(=O)N1C[C@H]2[C@@H]([C@H]1C(=O)NC(CC1(O)CCC1)C(=O)C(N)=O)C2(C)C)C(C)(C)C (stereo partly drawn)
7 | 98 nM | 1.1 µM·h | 1200 nM | CC(C)(C)NC(=O)N[C@H](C(=O)N1C[C@H]2[C@@H]([C@H]1C(=O)NC(CC1CC(F)(F)C1)C(=O)C(N)=O)C2(C)C)C(C)(C)C (stereo partly drawn)
8 | 120 nM | – | – | CC(C)(C)NC(=O)N[C@H](C(=O)N1C[C@H]2[C@@H]([C@H]1C(=O)NC(CC(F)(F)F)C(=O)C(N)=O)C2(C)C)C(C)(C)C (stereo partly drawn)
9 | 210 nM | 0.31 µM·h | – | CC(C)(C)NC(=O)N[C@H](C(=O)N1C[C@H]2[C@@H]([C@H]1C(=O)NC(CC1(F)CCC1)C(=O)C(N)=O)C2(C)C)C(C)(C)C (stereo partly drawn)
10 | 50 nM | – | 1000 nM | CC(C)(C)NC(=O)N[C@H](C(=O)N1C[C@H]2[C@@H]([C@H]1C(=O)NC(CC1CC1(F)F)C(=O)C(N)=O)C2(C)C)C(C)(C)C (stereo partly drawn)
11 | 14 nM | – | 350 nM | CC(C)(C)NC(=O)N[C@H](C(=O)N1C[C@H]2[C@@H]([C@H]1C(=O)NC(CC1CCC1)C(=O)C(N)=O)C2(C)C)C(C)(C)C (stereo partly drawn) [BOCEPREVIR]
